The source of these data is ChEMBL document CHEMBL1158449, “Hirtellanines A and B, a pair of isomeric isoflavonoid derivatives from Campylotropis hirtella and their immunosuppressive activities” (Bioorg Med Chem Lett, 2009).

The subject of data set [1] is Splenocyte. Kind of data set: Selectivity index, CC50 for splenocytes to IC50 for concanavalin A-induced splenocyte proliferation. The class given is functional.
For data set [2], the system named is Splenocyte. Put plainly: Selectivity index, CC50 for splenocyte to IC50 for LPS-induced splenocytes proliferation. The data set is classed as functional.
The nature of data set [3]: Cytotoxicity against splenocytes after 48 hrs by MTT assay. The data set is classed as cell-based, Splenocyte. On the technique in general: Tetrazolium dyes change colour on reduction, which living cells bring about.
For data set [4], the system named is Splenocyte. Put plainly: Immunosuppressive activity in splenocytes assessed as inhibition of concanavalin A-induced proliferation after 48 hrs by [3H]thymidine incorporation assay. The class given is functional, cell-based. Particulars: Mus musculus.
In data set [5] the test system is Splenocyte. Put plainly: Immunosuppressive activity in splenocytes assessed as inhibition of LPS-induced proliferation after 48 hrs by [3H]thymidine incorporation assay. The data set is classed as functional, cell-based. Particulars: Mus musculus. Background: Incorporation of labelled thymidine or its analogues reports DNA synthesis.

`C/C=C/C[C@@H](C)[C@@H](O)[C@H]1C(=O)N[C@@H](CC)C(=O)N(C)CC(=O)N(C)[C@@H](CC(C)C)C(=O)N[C@@H](C(C)C)C(=O)N(C)[C@@H](CC(C)C)C(=O)N[C@@H](C)C(=O)N[C@H](C)C(=O)N(C)[C@@H](CC(C)C)C(=O)N(C)[C@@H](CC(C)C)C(=O)N(C)[C@@H](C(C)C)C(=O)N1C` [CYCLOSPORINE]: the figures for the “Ratio CC50/IC50” value in the data set on Splenocyte [1] and in the data set on Splenocyte [2] were 88 and 12.39, respectively.

The term CC50 denotes the concentration at which the toxic effect on the cells reaches its halfway point. A higher CC50 goes with better tolerance by the cells. Broadly, the IC50 is the concentration needed to halve the response being measured. The compound `COc1c2c(cc3oc4oc5cc(O)c(O)cc5c4c(=O)c13)OC(C)(C)C=C2` [HIRTELLANINE A] returned a 50% cytotoxic concentration (CC50) at 48 h in data set [3] of 3.03 µM. Further, the results for the half-maximal inhibitory concentration (IC50) with Splenocyte [4] and in the data set on Splenocyte [5] were 0.92 µM and 0.06 µM, respectively. Also, the “Ratio CC50/IC50” value came to 3.29 with Splenocyte [1] and 50.5 with Splenocyte [2].

`COc1c2c(cc3oc(=O)c4c5cc(O)c(O)cc5oc4c13)OC(C)(C)C=C2` [HIRTELLANINE B]: in data set [3], the CC50 at 48 h was determined as 26.3 µM. Moreover, the figures for the half-maximal inhibitory concentration (IC50) in the data set with Splenocyte [4] and in the data set on Splenocyte [5] were 9.55 µM and 3 µM, respectively. Besides, the “Ratio CC50/IC50” value with Splenocyte [1] came to 2.76; in the data set with Splenocyte [2] it was 8.77.
